Measurements taken from patent US12194040B2, “FAK inhibitor and drug combination thereof” (HINOVA PHARMACEUTICALS INC., priority 2018, dated 2025).
Blank lines part the entries; values can stand above or below the molecule they belong to.

Columns and labels:
[1] = Pharmacokinetic test in rats (PO, 10 mpk); assay type: in vivo; conditions: male SD rats, PO (gavage), plasma
Description: An appropriate amount of test drug (10 mg) was accurately weighed, and 0.25 ml of N,N-dimethylacetamide (DMA) was first added to dissolve it, then 0.5% sodium carboxymethyl cellulose (CMC-Na) was slowly added to 5 ml. The mixture was sonicated, vortexed, and mixed well. 0.2 ml of the final solution prepared above was taken out and stored at −20° C. for the concentration determination.
After fasted overnight (free drinking water), three healthy adult male SD rats (180-250 g, purchased from Chengdu Dossy Experimental Animal Co., Ltd.) were administered by gavaging with a volume of 5 ml/kg; Prior to administration, as well as 0.5 h, 1 h, 2 h, 4 h, 6 h, 8 h, 12 h, 24 h after administration, 0.1 ml of blood was collected from the retroorbital venous plexus, centrifuged at 4° C. for 5 min to separate the plasma, and stored at −20° C. for testing. Then, LC/MS/MS method was used to determine the concentration of the test compound in the plasma.

MC38 tumor model = assay: Pharmacodynamic experiment on MC38 tumor animal model; assay type: in vivo, C57BL/6 mice; conditions: MC38, group 4: compound 44 50 mg/kg p.o. QD × 21; day 18
Description: Cell culture: MC-38 cells are cultured in DMEM medium containing 10% fetal bovine serum (FBS). MC-38 cells in logarithmic growth phase were collected, and resuspended in HBSS to a concentration suitable for subcutaneous tumor inoculation in C57BL/6 mice.
Experimental animals: C57BL/6 mice, female, 6-8 weeks old, weighing about 18-20 g, 96 mice, purchased from Beijing Vital River Experimental Animal Technology Co., Ltd.
Tumor cell inoculation: Tumor cells in logarithmic growth phase were collected, and the cell concentration was adjusted to 5×10^6/mL with HBSS, then 0.1 mL was subcutaneously inoculated on the right side of each mouse near the back, that is, 5×10^5/mouse. Then, the tumor volume was observed and measured. When the average tumor volume of the mice grew to 50-100 mm^3, the tumor-bearing mice were randomly grouped according to the tumor volume and administered. The detailed information was shown in Table 3, and the day of grouping and administration was defined as day 0.
Calculation of tumor volume: The mice were sacrificed on the 18th day, the tumor was taken out, the tumor volume was measured, and the tumor inhibition rate of each group was calculated.

PAN-02 tumor model = assay: Pharmacodynamic experiment on PAN02 tumor animal model; assay type: in vivo, C57BL/6 mice; conditions: PAN-02, group 4: compound 44 25 mg/kg i.g. BID; 33 days
Excerpt: The PAN-02 cells in the logarithmic growth phase were collected, washed twice with PBS, and then resuspended in pre-cooled PBS for inoculation. The experimental animals were C57BL/6 mice, females, purchased from Beijing Vital River Experimental Animal Technology Co., Ltd. C57BL/6 mice were adapted to the laboratory environment for 3 days. PAN-02 cells were subcutaneously inoculated into the right ribs, and the amount of cells inoculated was 1×10^6/mouse. When the tumor grew to about 100 mm^3, they will be screened and randomly grouped. Each group included 8 mice. According to Table 4, mice were grouped and administrated as the dosing regimen. The day of grouping and administration was defined as day 1, and the administration period was 33 days.

FAK enzyme = FAK enzyme (Homo sapiens, UniProt Q05397); assay: Inhibitory activity on FAK enzyme (HTRF, Sa-XL665 / TK antibody-Eu3+); assay type: biochemical
Sequence of FAK enzyme (Q05397 whole entry, species assumed): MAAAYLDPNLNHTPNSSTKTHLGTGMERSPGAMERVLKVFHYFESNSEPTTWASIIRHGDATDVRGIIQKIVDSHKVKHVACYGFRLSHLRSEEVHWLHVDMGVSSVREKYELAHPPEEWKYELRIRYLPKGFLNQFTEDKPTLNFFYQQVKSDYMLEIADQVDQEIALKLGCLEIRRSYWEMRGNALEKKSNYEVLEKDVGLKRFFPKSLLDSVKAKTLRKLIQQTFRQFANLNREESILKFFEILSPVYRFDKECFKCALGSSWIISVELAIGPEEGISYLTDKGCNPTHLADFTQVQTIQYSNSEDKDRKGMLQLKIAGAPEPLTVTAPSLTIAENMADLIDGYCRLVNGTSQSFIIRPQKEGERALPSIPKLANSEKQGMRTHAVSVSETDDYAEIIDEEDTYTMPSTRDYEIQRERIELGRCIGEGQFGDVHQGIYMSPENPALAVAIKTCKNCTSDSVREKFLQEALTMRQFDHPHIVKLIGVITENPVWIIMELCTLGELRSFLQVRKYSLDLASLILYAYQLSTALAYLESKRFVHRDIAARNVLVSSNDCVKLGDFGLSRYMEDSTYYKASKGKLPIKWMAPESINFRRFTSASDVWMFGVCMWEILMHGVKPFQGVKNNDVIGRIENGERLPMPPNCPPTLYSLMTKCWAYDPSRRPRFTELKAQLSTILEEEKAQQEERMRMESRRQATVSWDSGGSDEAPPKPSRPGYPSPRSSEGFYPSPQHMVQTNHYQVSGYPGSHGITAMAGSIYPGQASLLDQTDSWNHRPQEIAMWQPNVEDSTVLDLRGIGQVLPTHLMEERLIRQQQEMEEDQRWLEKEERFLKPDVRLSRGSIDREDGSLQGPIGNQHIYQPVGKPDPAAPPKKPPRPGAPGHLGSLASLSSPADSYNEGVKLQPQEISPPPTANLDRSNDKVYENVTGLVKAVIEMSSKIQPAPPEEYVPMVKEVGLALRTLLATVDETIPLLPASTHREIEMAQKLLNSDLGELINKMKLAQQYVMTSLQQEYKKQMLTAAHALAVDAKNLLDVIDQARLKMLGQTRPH
Description: By referring to literature methods (Cancer Res. 2008, 68, 1935), the experiment of inhibitory activity on FAX enzyme was carried out. The details are as follows: the test compound was diluted to 1000 nM, and then subjected to 1:3 serial dilution with DMSO. 0.1 L of the solution was transferred into a 384-well plate, and 2 replicate wells were set up for each concentration. 5 µL of 2 FAK enzyme solution was added, then centrifuged at 1000 rpm for 1 min, and incubated at 25° C. for 15 min. 5 L of 2× substrate solution was added and incubate at 25° C. for 60 min. Then, 5 µL of Sa-XL665 solution and 5 μL of TK antibody-Eu3+ were added, and centrifuged at 1000 rpm for 1 min, then incubated at 25° C. for 60 min. Finally, Envision 2104 plate reader was used to read the fluorescence signal, and calculate the half inhibitory concentration IC50 of each compound on FAX enzyme.

- half life t1/2 [1]: 1.75 h
Molecule: [2H]C([2H])([2H])NC(=O)c1ccc(Nc2ncc(C(F)(F)F)c(NCc3nccnc3N(C)S(C)(=O)=O)n2)cc1 [Compound 25, N-trideuteromethyl-4-((4-(((3-(N-methanesulfonamido)pyrazin-2-yl)methyl)amino)-5-(trifluoromethyl)pyrimidin-2-yl)amino)benzamide]

Molecule: [2H]C([2H])([2H])NC(=O)c1ccc(Nc2ncc(C(F)(F)F)c(NCc3nccnc3N(C([2H])([2H])[2H])S(C)(=O)=O)n2)cc1 [Compound 44, N-trideuteromethyl-4-((4-(((3-(N-trideuteromethylmethanesulfonamido)pyrazin-2-yl)methyl)amino)-5-(trifluoromethyl)pyrimidin-2-yl)amino)benzamide]
- Tumor inhibition rate (MC38 tumor model): 26.9%
- Tumor inhibition rate (PAN-02 tumor model): 66%

- IC50 (FAK enzyme): 0.15 nM
Molecule: N-deuteromethyl-4-((4-(((3-(N-deuteromethanesulfonamido) pyrazin-2-yl)deuteromethyl)amino)-5-(trifluoromethyl)pyrimidine-2-yl)amino)benzamide [Compound 45]
